The values below come from BindingDB's records for doi:10.1016/j.bmcl.2008.02.009 (Novartis Institutes For Biomedical Research, 2008).

In general, IC50 refers to the concentration needed to halve the response being measured. A low value points to higher potency.

Molecules are shown by their SMILES.

One experiment concerns the target T1, Isoprenyl transferase (Streptococcus pneumoniae serotype 4 (strain ATCC BAA-334 / TIGR4), UniProt Q97SR4).
T1 sequence (Q97SR4 whole entry): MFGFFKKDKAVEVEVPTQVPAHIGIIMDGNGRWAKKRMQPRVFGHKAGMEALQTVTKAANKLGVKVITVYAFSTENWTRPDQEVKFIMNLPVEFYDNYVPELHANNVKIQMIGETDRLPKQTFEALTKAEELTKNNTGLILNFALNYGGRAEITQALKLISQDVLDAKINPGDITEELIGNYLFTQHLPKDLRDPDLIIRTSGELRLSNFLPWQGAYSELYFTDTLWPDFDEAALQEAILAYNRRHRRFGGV
Kind of experiment: Inhibition of Streptococcus pneumoniae UPPS.

The target in experiment [1] is T2, Farnesyl pyrophosphate synthase (Homo sapiens, UniProt P14324).
T2 sequence (P14324 whole entry): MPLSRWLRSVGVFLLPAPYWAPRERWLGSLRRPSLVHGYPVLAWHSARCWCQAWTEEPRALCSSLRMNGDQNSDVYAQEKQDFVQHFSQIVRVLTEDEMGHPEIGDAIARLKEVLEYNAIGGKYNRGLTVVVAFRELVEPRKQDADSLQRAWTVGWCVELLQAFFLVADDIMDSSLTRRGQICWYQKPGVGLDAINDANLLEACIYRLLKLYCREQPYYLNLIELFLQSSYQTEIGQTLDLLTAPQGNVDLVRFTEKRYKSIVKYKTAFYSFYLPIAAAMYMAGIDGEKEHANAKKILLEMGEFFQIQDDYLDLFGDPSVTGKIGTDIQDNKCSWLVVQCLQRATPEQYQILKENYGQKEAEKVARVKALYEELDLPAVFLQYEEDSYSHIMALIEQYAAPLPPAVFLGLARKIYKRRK
Kind of experiment: Inhibition of human FPPS.

At Isoprenyl transferase, `O=C1CC(Cc2ccccc2)NC(=O)C1C(=O)Nc1ccc(Nc2ccccc2)cc1` (stereo unspecified) gave an IC50 of 1.1 µM. For the compound `O=C1CC(Cc2ccccc2)NC(=O)C1C(=O)Nc1ccc(N2CCCCC2)cc1` (stereo unspecified), the IC50 was greater than 50 µM in experiment [1] and 0.11 µM on Isoprenyl transferase. At Isoprenyl transferase, `O=C(Nc1ccc(-c2ccccc2)cc1)C1C(=O)OC(Cc2ccccc2)C1=O` (stereo unspecified) came in with an IC50 of 1.1 µM.

For the compound `O=C1CC(Cc2ccccc2)NC(=O)C1C(=O)Nc1ccc(Oc2ccccc2)cc1` (stereo unspecified), the IC50 was greater than 50 µM in experiment [1] and 0.11 µM against Isoprenyl transferase.
